Measurements reported in patent publication US20220177428A1, “SPECIFICALLY SUBSTITUTED 3-(2-ALKOXY-6-ALKYL-4-PROPINYLPHENYL)-3-PYRROLIN-2-ONES AND THEIR USE AS HERBICIDES” (Bayer Aktiengesellschaft, priority 2019, published 2022).

Experiments:
Format in all cases: in vivo
Avena fatua [1] = assay: Post-emergence herbicidal effect; conditions: 80 g ai/ha, visual score after about 3 weeks
Experimental: (§1) [table] Seeds of monocotyledonous and dicotyledonous weed and crop plants are laid out in sandy loam soil in wood-fibre pots, covered with soil and cultivated in a greenhouse under good growth conditions. 2 to 3 weeks after sowing, the test plants are treated at the one-leaf stage. The compounds of the invention, formulated in the form of wettable powders (WP) or as emulsion concentrates (EC), are then sprayed onto the green parts of the plants as aqueous suspension or emulsion at a water application rate equating to 600 to 800 L/ha with addition of 0.2% wetting agent. After the test plants have been left to stand in the greenhouse under optimal growth conditions for about 3 weeks, the action of the preparations is assessed visually in comparison to untreated controls (herbicidal action in percent (%): 100% activity=the plants have died, 0% activity=like control plants).

Echinochloa crus-galli [2] = assay: Post-emergence herbicidal effect; conditions: 80 g ai/ha, visual score after about 3 weeks
Experimental: as §1

Digitaria sanguinalis [3] = assay: Post-emergence herbicidal effect; conditions: 80 g ai/ha, visual score after about 3 weeks
Experimental: as §1

Hordeum murinum = assay: Post-emergence herbicidal effect; conditions: 80 g ai/ha, visual score after about 3 weeks
Experimental: as §1

Alopecurus myosuroides [4] = assay: Post-emergence herbicidal effect; conditions: 80 g ai/ha, visual score after about 3 weeks
Experimental: as §1

Setaria viridis [5] = assay: Post-emergence herbicidal effect; conditions: 80 g ai/ha, visual score after about 3 weeks
Experimental: as §1

Lolium rigidum [6] = assay: Post-emergence herbicidal effect; conditions: 80 g ai/ha, visual score after about 3 weeks
Experimental: as §1

Amaranthus retroflexus = assay: Pre-emergence herbicidal effect; conditions: 320 g ai/ha, visual score after 3 weeks
Source text: (§2) Seeds of monocotyledonous and dicotyledonous weed plants and crop plants are laid out in sandy loam soil in wood-fibre pots and covered with soil. The compounds of the invention, formulated in the form of wettable powders (WP) or as emulsion concentrates (EC), are then applied to the surface of the covering soil as aqueous suspension or emulsion at a water application rate equating to 600 to 800 L/ha with addition of 0.2% wetting agent. After the treatment, the pots are placed in a greenhouse and kept under good growth conditions for the trial plants. The damage to the test plants is scored visually after a test period of 3 weeks by comparison with untreated controls (herbicidal activity in percent (%): 100% activity=the plants have died, 0% activity=like control plants). [table]

Viola tricolor = assay: Pre-emergence herbicidal effect; conditions: visual score after 3 weeks
Source text: as §2

Avena fatua [7] = assay: Pre-emergence herbicidal effect; conditions: visual score after 3 weeks
Source text: as §2

Matricaria inodora = assay: Pre-emergence herbicidal effect; conditions: 320 g ai/ha, visual score after 3 weeks
Source text: as §2

Echinochloa crus-galli [8] = assay: Pre-emergence herbicidal effect; conditions: visual score after 3 weeks
Source text: as §2

Digitaria sanguinalis [9] = assay: Pre-emergence herbicidal effect; conditions: visual score after 3 weeks
Source text: as §2

Veronica persica = assay: Pre-emergence herbicidal effect; conditions: 320 g ai/ha, visual score after 3 weeks
Source text: as §2

Abutylon threophrasti = assay: Pre-emergence herbicidal effect; conditions: 320 g ai/ha, visual score after 3 weeks
Source text: as §2

Alopecurus myosuroides [10] = assay: Pre-emergence herbicidal effect; conditions: visual score after 3 weeks
Source text: as §2

Setaria viridis [11] = assay: Pre-emergence herbicidal effect; conditions: visual score after 3 weeks
Source text: as §2

Lolium rigidum [12] = assay: Pre-emergence herbicidal effect; conditions: visual score after 3 weeks
Source text: as §2

SMILES | Post-emergence activity AVEFA (Avena fatua [1]) [%] | Post-emergence activity ECHCG (Echinochloa crus-galli [2]) [%] | Post-emergence activity DIGSA (Digitaria sanguinalis [3]) [%] | Post-emergence activity HORMU (Hordeum murinum) [%] | Post-emergence activity ALOMY (Alopecurus myosuroides [4]) [%] | Post-emergence activity SETVI (Setaria viridis [5]) [%] | Post-emergence activity LOLRI (Lolium rigidum [6]) [%] | Pre-emergence activity VIOTR (Viola tricolor; 80 g ai/ha) [%] | Pre-emergence activity ECHCG (Echinochloa crus-galli [8]; 80 g ai/ha) [%] | Pre-emergence activity DIGSA (Digitaria sanguinalis [9]; 80 g ai/ha) [%] | Pre-emergence activity ALOMY (Alopecurus myosuroides [10]; 80 g ai/ha) [%] | Pre-emergence activity SETVI (Setaria viridis [11]; 80 g ai/ha) [%] | Pre-emergence activity LOLRI (Lolium rigidum [12]; 80 g ai/ha) [%] | Pre-emergence activity AVEFA (Avena fatua [7]; 80 g ai/ha) [%] | other results
CC#Cc1cc(C)c(C2=C(O)C3(CCCC(OCCC)C3)NC2=O)c(OC)c1 (centres unmarked) [Example D1, 4-Hydroxy-3-[2-methoxy-6-methyl-4-(prop-1-yn-1-yl)phenyl]-7-propoxy-1-azaspiro[4.5]dec-3-en-2-one] | 100 | 100 | 100 | 100 | 100 | 100 | 100 | – | – | – | – | – | – | – | –
CC#Cc1cc(C)c(C2=C(O)C3(CCC(OCCC)CC3)NC2=O)c(OC)c1 (centres unmarked) [Example D2] | 100 | 100 | 100 | – | 100 | 100 | 100 | 100 | 80 | 100 | 80 | 100 | 90 | – | Pre-emergence activity AMARE (Amaranthus retroflexus): 100%; Pre-emergence activity VIOTR (Viola tricolor; 320 g ai/ha): 100%; Pre-emergence activity AVEFA (Avena fatua [7]; 320 g ai/ha): 100%; Pre-emergence activity MATIN (Matricaria inodora): 100%; Pre-emergence activity ECHCG (Echinochloa crus-galli [8]; 320 g ai/ha): 100%; Pre-emergence activity DIGSA (Digitaria sanguinalis [9]; 320 g ai/ha): 100%; Pre-emergence activity VERPE (Veronica persica): 80%; Pre-emergence activity ABUTH (Abutylon threophrasti): 100%; Pre-emergence activity ALOMY (Alopecurus myosuroides [10]; 320 g ai/ha): 100%; Pre-emergence activity SETVI (Setaria viridis [11]; 320 g ai/ha): 100%; Pre-emergence activity LOLRI (Lolium rigidum [12]; 320 g ai/ha): 100%
CC#Cc1cc(C)c(C2=C(O)C3(CCC(OC(C)C)CC3)NC2=O)c(OC)c1 (centres unmarked) [Example D3] | 100 | 100 | 100 | 80 | 100 | 100 | 100 | 100 | 100 | 100 | 100 | 100 | 100 | 80 | –
C=CCOC1CCC2(CC1)NC(=O)C(c1c(C)cc(C#CC)cc1OC)=C2O (centres unmarked) [Example D5] | 100 | 100 | 100 | 100 | 100 | 100 | 100 | – | – | – | – | – | – | – | –
CC#Cc1cc(C)c(C2=C(O)C3(CCC(COC)CC3)NC2=O)c(OC)c1 (centres unmarked) [Example D6] | 100 | 100 | 100 | – | 100 | 100 | 100 | – | – | 100 | 80 | 100 | 100 | 80 | Pre-emergence activity AMARE (Amaranthus retroflexus): 100%; Pre-emergence activity VIOTR (Viola tricolor; 320 g ai/ha): 100%; Pre-emergence activity AVEFA (Avena fatua [7]; 320 g ai/ha): 100%; Pre-emergence activity MATIN (Matricaria inodora): 90%; Pre-emergence activity ECHCG (Echinochloa crus-galli [8]; 320 g ai/ha): 100%; Pre-emergence activity DIGSA (Digitaria sanguinalis [9]; 320 g ai/ha): 100%; Pre-emergence activity VERPE (Veronica persica): 100%; Pre-emergence activity ABUTH (Abutylon threophrasti): 100%; Pre-emergence activity ALOMY (Alopecurus myosuroides [10]; 320 g ai/ha): 100%; Pre-emergence activity SETVI (Setaria viridis [11]; 320 g ai/ha): 100%; Pre-emergence activity LOLRI (Lolium rigidum [12]; 320 g ai/ha): 100%
CC#Cc1cc(C)c(C2=C(OC(=O)OC)C3(CCCC(OCCC)C3)NC2=O)c(OC)c1 (centres unmarked) [Example P2] | 100 | 100 | 100 | 100 | 100 | 100 | 100 | – | – | – | – | – | – | – | –
CC#Cc1cc(C)c(C2=C(OC(=O)OCC)C3(CCCC(OCCC)C3)NC2=O)c(OC)c1 (centres unmarked) [Example P3] | 100 | 100 | 100 | 100 | 100 | 100 | 100 | – | – | – | – | – | – | – | –
CC#Cc1cc(C)c(C2=C(OC(=O)C(C)C)C3(CCCC(OCCC)C3)NC2=O)c(OC)c1 (centres unmarked) [Example P4] | 100 | 100 | 90 | 100 | 100 | 100 | 100 | – | – | – | – | – | – | – | –
CC#Cc1cc(C)c(C2=C(OC(=O)CC)C3(CCCC(OCCC)C3)NC2=O)c(OC)c1 (centres unmarked) [Example P5] | 100 | 100 | 100 | 100 | 100 | 100 | 100 | – | – | – | – | – | – | – | –
CC#Cc1cc(C)c(C2=C(OC(=O)OCC)C3(CCC(OCCC)CC3)NC2=O)c(OC)c1 (centres unmarked) [Example Q2] | 90 | 100 | 100 | – | 100 | 100 | 100 | 100 | 100 | 100 | 100 | 100 | 100 | 80 | Pre-emergence activity AMARE (Amaranthus retroflexus): 100%; Pre-emergence activity VIOTR (Viola tricolor; 320 g ai/ha): 100%; Pre-emergence activity AVEFA (Avena fatua [7]; 320 g ai/ha): 100%; Pre-emergence activity MATIN (Matricaria inodora): 100%; Pre-emergence activity ECHCG (Echinochloa crus-galli [8]; 320 g ai/ha): 100%; Pre-emergence activity DIGSA (Digitaria sanguinalis [9]; 320 g ai/ha): 100%; Pre-emergence activity VERPE (Veronica persica): 90%; Pre-emergence activity ABUTH (Abutylon threophrasti): 90%; Pre-emergence activity ALOMY (Alopecurus myosuroides [10]; 320 g ai/ha): 100%; Pre-emergence activity SETVI (Setaria viridis [11]; 320 g ai/ha): 100%; Pre-emergence activity LOLRI (Lolium rigidum [12]; 320 g ai/ha): 100%
C=CCOC1CCC2(CC1)NC(=O)C(c1c(C)cc(C#CC)cc1OC)=C2OC(=O)OC (centres unmarked) [Example Q3] | 80 | 100 | 90 | 100 | 100 | 100 | 100 | – | – | – | – | – | – | – | –
C=CCOC1CCC2(CC1)NC(=O)C(c1c(C)cc(C#CC)cc1OC)=C2OC(=O)OCC (centres unmarked) [Example Q4] | 90 | 100 | 100 | 100 | 100 | 100 | 100 | 100 | 100 | 100 | 100 | 100 | 100 | 90 | –
C=CCOC1CCC2(CC1)NC(=O)C(c1c(C)cc(C#CC)cc1OC)=C2OC(=O)C(C)C (centres unmarked) [Example Q5] | – | 100 | 100 | 90 | 100 | 100 | 100 | – | – | – | – | – | – | – | –
